Measurements as given in US5605700A (priority 1992, dated 1997).
pIC50: −log10 of the molar value. Entries after “also recorded” stand apart in the source; their conditions may differ.

Key:
[1] = test system: six cell lines of melanocyte origin; test: Cytostatic effect in all six cell lines of melanocyte origin; format: cell-based, human and Monodelphis domestica
From the text: (§1) The metastatic melanoma cell line, SK-MEL-31, was obtained from the American Type Culture Collection (Rockville, Md.). Two additional human cell lines were derived from portions of surgigally-excised large diameter, superficial spreading melanomas. TD 1.4 was developed from a benign melanoma, whereas TD 7.2 and TD 8 were derived from melanocytic hyperplasias.

TD 36 = test: Cytostatic effect in melanoma cell line TD 36; format: cell-based; conditions: human cell line TD 36; read-out: IC-50 (50% growth inhibitory concentration)
MDR-positive cells = conditions: cited from earlier work; for multidrug resistance reversal / chemosensitizing activity: in vitro
[2] = Plasma and tissue concentration of toremifene after topical administration in Monodelphis domestica; format: in vivo
Description: The dose was 0.5 mg/d in 3 and 1 mg/d in 3 animals.

[3] = cited from earlier work; for concentration: following large oral doses, read-out: plasma concentration
TD 7.2 = test: Cytostatic effect in experimental cell line TD 7.2; format: cell-based; conditions: Monodelphis domestica, read-out: IC-50 (50% growth inhibitory concentration)
From the text: as §1

MDR MDA A-1 tumors = test: Doxorubicin cytotoxicity enhancement in MDR tumors; clonogenic assay of tumors excised from treated mice; format: in vivo, mouse; conditions: for percent inhibition (clonogenic assay): all three tumors, doxorubicin 1 μg/ml 1 hour, 14 days
Description: Drug was applied dropwise to the skin surface directly and around the tumor. Each drop was allowed to evaporate completely. This treatment was administered once a day at the same time for a total of five days. […] Tumors were collected sterilely and processed for clonogenic assay.
The remaining portion was cloned following a 1 hour exposure to doxorubicin 1 μg/ml.

[4] = Tissue distribution of toremifene after single dose (500 μg) IP vs. topical; format: in vivo; conditions: mouse, 0.5 mg
Description: Single dose toremifene was administered by IP as described above, or topically with DMSO/ETOH/methylcellulose/water as the diluents. […] Tissue samples were collected as above.
All blood samples were centrifuged at 1,000 g. […] Samples were collected and dried as described below. […] The brain samples required filtration with disposable syringe filters.
DMSO and methylcellulose were used as the diluents. […] This was trend noted in both serum and uterus.

TD 8 = test: Cytostatic effect in experimental cell line TD 8; format: cell-based; conditions: Monodelphis domestica, read-out: IC-50 (50% growth inhibitory concentration)
From the text: as §1

TD 30 A = test: Cytostatic effect in melanoma cell line TD 30 A; format: cell-based; conditions: human cell line TD 30 A; read-out: IC-50 (50% growth inhibitory concentration)
SD-MEL-31 = test: Cytostatic effect in metastatic melanoma cell line SD-MEL-31 (text: SK-MEL-31); format: cell-based; conditions: human cell line SD-MEL-31; read-out: IC-50 (50% growth inhibitory concentration)
From the text: as §1

MCF-7 cells = test: Prevention of breast cancer (MCF-7) tumor growth by topical administration in the mouse; format: in vivo; conditions: topical 500 μg, 15 days
Description: In this study 12 mice were transplanted with MCF-7 cells and were allowed to grow until a small tumor was detected in all mice (<1 mm^3). At that time mice were divided into three groups of four mice each. […] All mice received the same amount of diluent/day (20 μl ). The study was assessed following 15 days of treatment.

TD 1.4 = test: Cytostatic effect in experimental cell line TD 1.4; format: cell-based; conditions: Monodelphis domestica, read-out: IC-50 (50% growth inhibitory concentration)
From the text: as §1

[5] = test system: spontaneous non-Hodgkin's lymphoma; test: Treatment of spontaneous non-Hodgkin's lymphoma in a baboon; format: in vivo
Description: Enlarged lymph nodes with diameters of 1-2 cm were evident in the both groins. Toremifene was dissolved in a. mixture of dimethylsulfoxide, ethanol and methylcellulose. […] On day 25 following start of treatment, topical therapy of right groin was re-instituted while continuing the oral treatment. […] The response to therapy was determined by measuring the sizes of the tumors on two perpendicular dimensions.

[6] = test system: estrogen receptors (ER's); conditions: cited from earlier work
[7] = Tissue distribution of toremifene and metabolites after 5 days IP vs. topical toremifene (HPLC), mice with MDA A-1 tumors; conditions: for concentration at 2 h: mouse
Description: Sixteen female athymic nude mice were injected with a 20-gauge needle subcutaneously with 5×10^6 MDA A-1 cells in the left scapular area. The tumors were allowed to grow for three weeks prior to treatment.
Each of the three mice were injected IP using an 18 gauge needle with 50 μl, delivering 1 mg/day for five days. […] All mice were sacrificed on the fifth day of treatment two hours after the final dose. Blood specimens were collected by capillary pipette after disruption of axillary vessels and placed into heparinized centrifuge tubes. The brains, livers, and uterus were removed surgically and placed in separate tubes.
All blood samples were centrifuged at 1,000 g. The plasma was collected, measured for volume, and placed in clean extraction tubes. All remaining tissue samples were weighed, placed in extraction tubes, and spiked with an internal standard, nafoxidine. The tissues were thoroughly homogenized before the addition of 6 ml extraction fluid. Samples were collected and dried as described below. Before injection onto the HPLC column, each sample was reconstituted with 200 μl methanol. All samples were placed in a quartz cuvette for UV activation. The brain samples required filtration with disposable syringe filters.

[8] = test system: estrogen receptor (ER) positive metastatic breast cancer; conditions: cited from earlier work
[9] = oral 1 g on days 15, 17, 19 and 23
[10] = right inguinal lymphoma, topical re-instituted while continuing oral
[11] = brain, topical or ocular, 2.5 mg/day
[12] = liver, topical or ocular, 2.5 mg
[13] = serum, topical or ocular, 2.5 mg
[14] = tumor, topical or ocular, 2.5 mg
[15] = uterus, topical or ocular, 2.5 mg

Structure (SMILES): CN(C)CCOc1ccc(/C(=C(/CCCl)c2ccccc2)c2ccccc2)cc1 [toremifene]
- pIC50 ([1]; Melanocyte, all six cell lines, read-out: range of IC-50s): 5.02 to 5.24
- cytostatic effect ([1]; human and experimental melanomatous cell lines in vitro): clear cytostatic effect
- pIC50 (TD 36): 5.24
- concentration that reverses resistance in vitro (MDR-positive cells; achievable in vivo following oral therapy): 5 µM
- multidrug resistance reversal / chemosensitizing activity (MDR-positive cells): have chemosensitizing activity in MDR-positive cells
- mean concentration of toremifene in brain ([2]; topical 0.5 mg/day for 5 days): 0.82 ± 0.99 nmol/g
- mean concentration of toremifene in skin ([2]; topical 0.5 mg/day for 5 days): 1296.40 ± 1003.93 nmol/g
- mean concentration of toremifene in brain ([2]; topical 1 mg/day for 5 days): 0.82 ± 0.62 nmol/g
- mean concentration of toremifene in skin ([2]; topical 1 mg/day for 5 days): 1237.35 ± 768.90 nmol/g
- Toremifene concentration in skin as compared to other tissues ([2]; topical 0.5 and 1 mg/day for 5 days): more than 500 fold
- concentration [3]: ~10 µM
- systemic toxicity ([3]; high-dose toremifene (400 mg/day)): generally confined to vertigo, nausea and hot flashes
- pIC50 (TD 7.2): 5.02
- percent inhibition (clonogenic assay) (MDR MDA A-1 tumors; intraperitoneal toremifene): < 30%
- percent inhibition (clonogenic assay) (MDR MDA A-1 tumors; topical toremifene): > 30%
- sensitization of tumors to doxorubicin (MDR MDA A-1 tumors; topical toremifene, cloning studies (FIG. 2)): appears to sensitize these MDR MDA A-1 tumors to doxorubicin
- concentration at 2 h ([4]; serum, ip, Serum toremifene concentration): 90 ng/mL
- concentration at 2 h ([4]; serum, topical or ocular, Serum toremifene concentration, topical in DMSO): 30 ng/mL
- concentration at 2 h ([4]; serum, topical or ocular, Serum toremifene concentration, topical in methylcellulose (MC)): 20 ng/mL
- concentration at 2 h ([4]; tumor, ip, Tumor toremifene concentration): 2570 ng/g
- concentration at 2 h ([4]; tumor, topical or ocular, Tumor toremifene concentration, topical in DMSO): 4650 ng/g
- concentration at 2 h ([4]; tumor, topical or ocular, Tumor toremifene concentration, topical in methylcellulose (MC)): 1800 ng/g
- concentration at 2 h ([4]; uterus, ip, Uterus toremifene concentration): 23600 ng/g
- concentration at 2 h ([4]; uterus, topical or ocular, Uterus toremifene concentration, topical in DMSO): 920 ng/g
- concentration at 2 h ([4]; uterus, topical or ocular, Uterus toremifene concentration, topical in methylcellulose (MC)): 1100 ng/g
- pIC50 (TD 8): 5.11
- pIC50 (TD 30 A): 5.11
- pIC50 (SD-MEL-31): 5.09
- effect on tumor growth (MCF-7 cells): prevented tumor growth
- pIC50 (TD 1.4): 5.03
- left inguinal lymphoma during oral therapy [5, 9]: stabilized
- right inguinal lymphoma during oral therapy [5, 9]: begun to regrow
- response of lymphoma to topical toremifene ([5]; right inguinal lymphoma, 1.4 g topical over 8 days): clear response
- tumor area after reinstituted topical therapy [5, 10]: 24 mm^2
- tumor area before reinstituted topical therapy [5, 10]: 476 mm^2
- in vivo antitumor response ([5]; topical, regional T-cell lymphoma): can produce an in vivo antitumor response

Structure (SMILES): COc1ccc(CCN(C)CCCC(C#N)(c2ccc(OC)c(OC)c2)C(C)C)cc1OC (stereo not drawn) [verapamil]
- multidrug resistance reversal / chemosensitizing activity (MDR-positive cells): shown to reverse multidrug resistance in vitro

Structure (SMILES): COc1cccc2c1C(=O)c1c(O)c3c(c(O)c1C2=O)C[C@@](O)(C(=O)CO)C[C@@H]3O[C@H]1C[C@H](N)[C@H](O)[C@H](C)O1 [doxorubicin]
- sensitivity of tumor to doxorubicin without toremifene (MDR MDA A-1 tumors; mouse not treated with toremifene (FIG. 2)): resistant

Structure (SMILES): CN(C)CCOc1ccc(/C(=C(/CCCl)c2ccccc2)c2ccc(O)cc2)cc1 [4-hydroxytoremifene, 4-chloro-1-(4-hydroxyphenyl)-2-phenyl-1-[4-[2-(N, N-dimethylamino)ethoyoxy]phenyl]-1-butene]
- multidrug resistance reversal / chemosensitizing activity (MDR-positive cells): have chemosensitizing activity in MDR-positive cells
- antiestrogenic potency among metabolites [6]: most potent antiestrogenic metabolite
- Topical/IP brain concentration ratio ([7]; brain, topical 2.5 mg/day vs IP 1 mg/day, 5 days, listed as Trans 4-hydroxytoremifene): 1.00
- Topical/IP brain concentration ratio ([7]; brain, topical 2.5 mg/day vs IP 1 mg/day, 5 days, listed as trans 4-hydroxytoremifene): identical
- Topical/IP liver concentration ratio ([7]; liver, topical 2.5 mg/day vs IP 1 mg/day, 5 days): 1.63
- concentration at 2 h ([7]; brain, ip, 1 mg/day): 350 ng/g
- concentration at 2 h [7, 11]: 350 ng/g
- concentration at 2 h ([7]; liver, ip, 1 mg): 600 ng/g
- concentration at 2 h [7, 12]: 980 ng/g
- concentration at 2 h ([7]; serum, ip, 1 mg): 160 ng/mL
- concentration at 2 h [7, 13]: 100 ng/mL
- concentration at 2 h ([7]; tumor, ip, 1 mg): 880 ng/g
- concentration at 2 h [7, 14]: 2330 ng/g
- concentration at 2 h ([7]; uterus, ip, 1 mg): 830 ng/g
- concentration at 2 h [7, 15]: 700 ng/g
- Topical/IP serum concentration ratio ([7]; serum, topical 2.5 mg/day vs IP 1 mg/day, 5 days, listed as Trans 4-hydroxytoremifene): 0.63
- Topical/IP serum concentration ratio ([7]; serum, topical 2.5 mg/day vs IP 1 mg/day, 5 days, listed as trans 4-hydroxytoremifene): lower
- Topical/IP tumor concentration ratio ([7]; tumor, topical 2.5 mg/day vs IP 1 mg/day, 5 days, listed as Trans 4-hydroxytoremifene): 2.65
- Topical/IP tumor concentration ratio ([7]; tumor, topical 2.5 mg/day vs IP 1 mg/day, 5 days, listed as trans 4-hydroxytoremifene): greater concentrations
- Topical/IP uterus concentration ratio ([7]; uterus, topical 2.5 mg/day vs IP 1 mg/day, 5 days): 0.84
- effect on tumor growth (MCF-7 cells): prevented tumor growth
- mice that developed a tumor (MCF-7 cells; four mice per group, all four control mice had tumors >6×8 mms): only one mouse

Structure (SMILES): CNCCOc1ccc(C(=C(CCCl)c2ccccc2)c2ccccc2)cc1 [N-demethyltoremifene, 4-chloro-1,2-diphenyl-[4-[2-(N-methylamino)ethoxy-]phenyl]-1-butene]
- multidrug resistance reversal / chemosensitizing activity (MDR-positive cells): have chemosensitizing activity in MDR-positive cells
- concentration [3]: ~10 µM
- concentration at 2 h ([7]; brain, ip, 1 mg/day): 490 ng/g
- concentration at 2 h [7, 11]: 290 ng/g
- concentration at 2 h ([7]; liver, ip, 1 mg): 940 ng/g
- concentration at 2 h [7, 12]: 920 ng/g
- concentration at 2 h ([7]; serum, ip, 1 mg): 180 ng/mL
- concentration at 2 h [7, 13]: 80 ng/mL
- concentration at 2 h ([7]; tumor, ip, 1 mg): 1270 ng/g
- concentration at 2 h [7, 14]: 8430 ng/g
- concentration at 2 h ([7]; uterus, ip, 1 mg): 1180 ng/g
- concentration at 2 h [7, 15]: 560 ng/g

Structure (SMILES): CC/C(=C(\c1ccccc1)c1ccc(OCCN(C)C)cc1)c1ccccc1 [tamoxifen]
- estrogen receptor antagonism ([6]; inhibition of estrogen-induced growth): competitive antagonism of tumor estrogen receptors
- fraction of patients with temporary remission ([8]; ER positive metastatic breast cancer): About two-thirds
- endometrial toxicity ([8]; adjuvant therapy, women): increased risk of developing endometrial neoplasms; also recorded: endometrial dysplasia, bleeding, polyp formation and tumors
